Test results published in US7049396B2, “Synthetic peptides that inhibit leukocyte superoxide anion production and/or attract leukocytes” (priority 1995, dated 2006).
≈ marks a conversion by molar mass, not a printed value. Read-outs that look alike come from different tables or passages of the source. Where a SMILES comes first, the peptide text is derived from it.

Legend:
[1] = biological target: T1, cell-free NADPH oxidase (human neutrophil cytosol and membranes) (Homo sapiens, UniProt P14598); test: Cell-free O2- production assay; type: biochemical
T1 construct: 10^6 cell equivalents of human neutrophil cytosol; from tissue; host or cells: human peripheral blood neutrophils (cytosol and deoxycholate-solubilized membranes)
T1 sequence (P14598 1-390): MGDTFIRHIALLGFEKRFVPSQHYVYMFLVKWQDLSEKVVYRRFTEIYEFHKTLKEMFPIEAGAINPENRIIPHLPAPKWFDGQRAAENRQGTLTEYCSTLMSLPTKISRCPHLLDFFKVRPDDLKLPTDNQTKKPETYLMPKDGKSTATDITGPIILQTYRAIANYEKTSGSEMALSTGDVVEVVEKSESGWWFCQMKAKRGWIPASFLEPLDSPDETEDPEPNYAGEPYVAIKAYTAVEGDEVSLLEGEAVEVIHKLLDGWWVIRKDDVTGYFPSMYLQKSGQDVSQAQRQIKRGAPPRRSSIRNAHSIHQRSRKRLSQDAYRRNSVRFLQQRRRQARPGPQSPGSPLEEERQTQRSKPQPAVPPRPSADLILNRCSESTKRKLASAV
Description: Reactions (100 μl) contained 10^6 cell equivalents of human neutrophil cytosol and 5×10^5 cell equivalents of deoxycholate-solubilized membranes prepared from human peripheral blood neutrophils. […] Control reactions contained 5 μg of superoxide dismutase. Superoxide anion generation was calculated based on superoxide dismutase-inhibitable changes in cytochrome c absorbance observed at 551 nm. The reactions were followed for 20 min. after addition of arachidonic acid, with absorbance readings taken at 1-min. intervals. […] Determinations were based on reactions performed in duplicate. • (ii) Binding assays. Neutrophils were disrupted by sonication, and unbroken cells, debris, and granules were removed by centrifuigation (13,000×g for 60 min.). Cytosol fractions were prepared by centrifugation (100,000 g for 45 min.) of the supernatants to remove residual membranes. Cytosolic proteins (15 μg in reducing buffer) were separated on a 7.5% SDS PAGE gel, transferred to PVDF membranes, and probed with biotinylated PR-39 (0.3 μM) for 2 hr. Binding between PR-39 and cytosolic proteins were visualized by a chemiluminescent streptavidin alkaline phosphatase system using an Epson scanner (Torrance, Calif.) and the NIH Image program. PR-39 was labeled with biotin hydrazide at the carboxy-terminus (Pierce Chemical Co., Rockford, Ill.) and purified by gel filtration chromatography.

[2] = system: S. typhimurium; test: Survival of mice after oral S. typhimurium challenge (first experiment); type: in vivo, A/J mice; details: 100 or 250 μg/mouse
Description: Effect of PR-26 on survival of mice challenged with S. typhimurium. Three separate S. typhimurium challenge studies were conducted with mice. In the first experiment, 45 A/J mice (Jackson Labs, Bar Harbor, Me.) were orally challenged with S. typhimurium. Feed was withdrawn 4 hrs. prior to an oral inoculation. Twenty min. prior to the inoculation with S. typhimurium mice were given a 30 μl dose of a 10% sodium bicarbonate solution in PBS. S. typhimurium, strain KSU007, was started in brain heart infusion broth overnight and then grown for 6 hrs. in Luria Broth Base (GIBCO, Gaithersburg, Md.). After centrifugation, bacteria were suspended in a 1% gelatin solution (final concentration 1.24×10^10 S. typhimurium/ml), and then 25 μl were given orally. Immediately following oral inoculation with S. typhimurium, mice were given 0, 100, or 250 μg of PR-26 in PBS. A second dose of PR-26 or PBS was given 4 hrs. later.

[3] = system: Staphylococcus aureus; test: MIC/MBC microdilution broth method; type: cell-based
Description: (§1) Plates were incubated at 37° C. for 18 hr. […] Viable bacteria were counted. Tests were repeated on three different days. […] The results were expressed as the mean ± standard deviation. […] S. choleraesuis, ATCC 6962 was used in this experiment. […] Slides were stained with LeukoStat solutions (Fisher, Pittsburgh, Pa.). […] At least 200 neutrophils were examined. […] Tests were repeated on three different days. Results were expressed as the mean±standard deviation.

[4] = system: Streptococcus suis; test: MIC/MBC microdilution broth method; type: cell-based
Description: as §1

[5] = system: Escherichia coli, 25922; test: MIC/MBC microdilution broth method; type: cell-based
Description: as §1

[6] = system: Salmonella typhimurium; test: MIC/MBC microdilution broth method; type: cell-based; details: murium
Description: as §1

[7] = system: Salmonella choleraesuis; type: cell-based
Description: as §1

[8] = system: Escherichia coli, K88
Description: Briefly, 50 μl of twofold serial dilutions (128 to 0.25 μM) of synthetic peptides were dispensed into wells of 96-well tissue culture plates. Bacteria (E. coli, ATCC 25922; E. coli, K88; S. typhimurium, fresh isolate from a dog; Salmonella choleraesuis ATCC 6962; Streptococcus suis, fresh isolate from porcine spleen; and Staphylococcus aureus) from sheep-blood or brain-heart-infusion agar plates were standardized to 0.5 McFarland in demineralized water using a radiometer/sensititre (Chelsea Instrument Ltd., England). The water/bacteria suspension (100 μl) was immediately transferred to 10 ml of cation-adjusted Muller-Hinton broth and 50 μl of the bacterial suspension then were added to each well of the microtiter plate. Plates were incubated for 20 hr. at 37° C. and MICs were determined. Ten microliters of bacterial suspensions in Muller-Hinton broth also were diluted to determine the actual bacterial concentration using standard colony forming unit (CFU) counting. After determination of the MICs, 10 μl of each bacteria-peptide suspension were plated on sheep-blood or brain-heart-infusion agar plates and incubated for 24 hr. at 37° C. to determine the MBCs. MBC was considered that peptide concentration that inhibited 99.9% of the original CFUs (NCCLS, 1990). • (iv) PAE.

[9] = system: S. typhimurium, KSU isolate 7; test: Lawn-spotting antibacterial assay (S. typhimurium); type: cell-based, Salmonella typhimurium; details: 5 μl spotted, inactive segments up to 1 mg/ml
[10] = system: E. coli, ATCC 25922; test: Gel-overlay antibacterial assay; type: cell-based, Escherichia coli; details: 10 μg peptide per lane, AU-PAGE gel overlaid with E. coli, 18 hr
[11] = system: whole-cell NADPH oxidase activity of porcine peripheral blood neutrophils; test: Whole-cell O2- production, ferricytochrome c reduction; type: cell-based; details: incubated 150 min. before PMA stimulation
Description: Regulation of neutrophil O2^− production by PR-26 and PR-39. • (i) O2^− production assays. Whole-cell O2^− production by por-cine peripheral blood neutrophils was determined by the superoxide dismutase-inhibitable reduction of ferricytochrome c as previously described (Shi et al., 1994a). Cell-free O2^− production was measured as previously described (Leto et al., 1991) using 96-well plates and a Molecular Devices Thermomax microplate reader (Menlo Park, Calif.). Reactions (100 μl) contained 10^6 cell equivalents of human neutrophil cytosol and 5×10^5 cell equivalents of deoxycholate-solubilized membranes prepared from human peripheral blood neutrophils. Reaction mixtures contained 50 mM potassium phosphate (pH 7), 0.2 mM acetylated cytochrome c, 4 mM MgCl2, 1 mM EGTA, 10 μM FAD, 1 μM GTP-γS, and 200 μM NADPH. The reactions were initiated by addition of 40 μM arachidonic acid. Control reactions contained 5 μg of superoxide dismutase. Superoxide anion generation was calculated based on superoxide dismutase-inhibitable changes in cytochrome c absorbance observed at 551 nm. The reactions were followed for 20 min. after addition of arachidonic acid, with absorbance readings taken at 1-min. intervals. Maximum rates of superoxide generation were calculated from a linear least squares fit of 10 consecutive 1-min. data points. Determinations were based on reactions performed in duplicate. • (ii) Binding assays. Neutrophils were disrupted by sonication, and unbroken cells, debris, and granules were removed by centrifuigation (13,000×g for 60 min.). Cytosol fractions were prepared by centrifugation (100,000 g for 45 min.) of the supernatants to remove residual membranes. Cytosolic proteins (15 μg in reducing buffer) were separated on a 7.5% SDS PAGE gel, transferred to PVDF membranes, and probed with biotinylated PR-39 (0.3 μM) for 2 hr. Binding between PR-39 and cytosolic proteins were visualized by a chemiluminescent streptavidin alkaline phosphatase system using an Epson scanner (Torrance, Calif.) and the NIH Image program. PR-39 was labeled with biotin hydrazide at the carboxy-terminus (Pierce Chemical Co., Rockford, Ill.) and purified by gel filtration chromatography.

[12] = system: E. coli, ATTC 25922; test: Lawn-spotting antibacterial assay (E. coli); type: cell-based, Escherichia coli; details: 5 μl spotted, inactive segments up to 1 mg/ml
[13] = system: porcine neutrophils; test: Neutrophil chemotaxis, modified Boyden chamber; type: cell-based; details: peptide at 1 μM, 30 min
Description: Influence of PR-39 on neutrophil chemotaxis. Chemotaxis of porcine neutrophils was measured by the procedure of Salak et al. (1993). Briefly, PR-14, PR15, PR-16, PR-26, or PR-39 (30 μl in Dulbecco's Modified Eagle's medium) were placed in the bottom chamber of a modified Boyden chamber (Neuro Probe, Cabin John, Md.) and porcine neutrophils (50 μl at 5×10^6 cells/ml) were placed in the top chamber. The chambers were incubated at 37° C. for 30 min. Cells that migrated through the porous membrane (pore size 5 μm) were stained using LeukoStat solution and enumerated. Five microscope fields were counted and the cells that migrated through the membrane were standardized to the medium control and referred to as the migration index.

[14] = cell-free assay, read-out: IC50 of O2- generation

Row | Compound | IC50 [1, 14] [µM] | antibacterial activity (clear zone on bacterial lawn) [9] | antibacterial activity (clear zones on overlaid gel) [10] | O2- generation by intact neutrophils [11] | antibacterial activity (clear zone on bacterial lawn) [12] | neutrophil chemotaxis (migration index) [13] | effect on O2- generation ([1]; cell-free assay) | other results
1 | CC(C)C[C@H](NC(=O)[C@H](Cc1ccc(O)cc1)NC(=O)[C@@H]1CCCN1C(=O)[C@@H]1CCCN1C(=O)[C@H](CCCNC(=N)N)NC(=O)[C@@H]1CCCN1C(=O)[C@H](CCCNC(=N)N)NC(=O)[C@H](CCCNC(=N)N)NC(=O)[C@@H](N)CCCNC(=N)N)C(=O)N1CCC[C@H]1C(=O)N[C@@H](CCCNC(=N)N)C(=O)N1CCC[C@H]1C(=O)N[C@@H](CCCNC(=N)N)C(=O)N1CCC[C@H]1C(=O)N1CCC[C@H]1C(=O)N1CCC[C@H]1C(=O)N[C@@H](Cc1ccccc1)C(=O)N[C@@H](Cc1ccccc1)C(=O)N1CCC[C@H]1C(=O)O [PR-19] (H-RRRPRPPYLPRPRPPPFFP-OH) | ~5 |  |  |  |  |  |  | 
2 | CC[C@H](C)[C@H](NC(=O)[C@H](CCCNC(=N)N)NC(=O)[C@@H]1CCCN1C(=O)[C@@H]1CCCN1C(=O)[C@H](CC(C)C)NC(=O)[C@H](CCCNC(=N)N)NC(=O)[C@@H]1CCCN1C(=O)[C@@H]1CCCN1C(=O)[C@H](Cc1ccccc1)NC(=O)[C@H](Cc1ccccc1)NC(=O)[C@@H]1CCCN1C(=O)[C@@H]1CCCN1C(=O)[C@@H]1CCCN1C(=O)[C@H](CCCNC(=N)N)NC(=O)[C@@H]1CCCN1C(=O)[C@H](CCCNC(=N)N)NC(=O)[C@@H]1CCCN1C(=O)[C@H](CC(C)C)NC(=O)[C@H](Cc1ccc(O)cc1)NC(=O)[C@@H]1CCCN1C(=O)[C@@H]1CCCN1C(=O)[C@H](CCCNC(=N)N)NC(=O)[C@@H]1CCCN1)C(=O)O [PR-23] (H-PRPPYLPRPRPPPFFPPRLPPRI-OH) | ~25 |  |  |  |  |  |  | 
3 | CC[C@H](C)[C@H](NC(=O)[C@H](CCCNC(=N)N)NC(=O)[C@@H]1CCCN1C(=O)[C@@H]1CCCN1C(=O)[C@H](CC(C)C)NC(=O)[C@H](CCCNC(=N)N)NC(=O)[C@@H]1CCCN1C(=O)[C@@H]1CCCN1C(=O)[C@H](Cc1ccccc1)NC(=O)[C@H](Cc1ccccc1)NC(=O)[C@@H]1CCCN1C(=O)[C@@H]1CCCN1C(=O)[C@@H]1CCCN1C(=O)[C@H](CCCNC(=N)N)NC(=O)[C@@H]1CCCN1C(=O)[C@H](CCCNC(=N)N)NC(=O)[C@@H]1CCCN1C(=O)[C@H](CC(C)C)NC(=O)[C@H](Cc1ccc(O)cc1)NC(=O)[C@@H]1CCCN1C(=O)[C@@H]1CCCN1C(=O)[C@H](CCCNC(=N)N)NC(=O)[C@@H]1CCCN1C(=O)[C@H](CCCNC(=N)N)NC(=O)[C@H](CCCNC(=N)N)NC(=O)[C@@H](N)CCCNC(=N)N)C(=O)O [PR-26] (H-RRRPRPPYLPRPRPPPFFPPRLPPRI-OH) |  |  |  |  |  |  |  | toxicity in mice [2]: no evidence of toxicity; MIC [3]: >250 µM; MBC [4]: >64 µM; MIC [4]: 16 µM (≈ 51.7 µg/mL); MBC [5]: 8 µM (≈ 25.8 µg/mL); MIC [5]: 2 µM (≈ 6.46 µg/mL); MBC [6]: 2 µM (≈ 6.46 µg/mL); MIC [6]: 2 µM (≈ 6.46 µg/mL); MBC [7]: 2 µM (≈ 6.46 µg/mL); MIC [7]: 1 µM (≈ 3.23 µg/mL); IC50 [1]: ~1 µM; MBC [8]: 4 µM (≈ 12.9 µg/mL); MIC [8]: 1 µM (≈ 3.23 µg/mL)
4 | PR-14: NH2-terminal segment 1 to 14 of PR-39; Sequence ID No. 7 (RRRPRPPYLPRPRP) |  | no antibacterial activity | only PR-26 and PR-39 were found to have antibacterial activity | did not significantly reduce | no antibacterial activity | chemotactic agents |  | concentrations at which O2- generation was reduced ([1]; cell-free assay): greater than 25 μM
5 | PR-15: COOH-terminal segment 25 to 39 of PR-39; Sequence ID No. 6 (RIPPGFPPRFPPRFP) |  | no antibacterial activity | only PR-26 and PR-39 were found to have antibacterial activity | did not significantly reduce | no antibacterial activity | chemotactic agents | did not affect | 
6 | PR-16: central segment 11 to 26 of PR-39; Sequence ID No. 5 (RPRPPPFFPPRLPPRI) |  | no antibacterial activity | only PR-26 and PR-39 were found to have antibacterial activity | did not significantly reduce | no antibacterial activity | chemotactic agents | did not affect | 
